Results as given in US20100168072A1, “Drug Combinations for the Treatment of Duchenne Muscular Dystrophy” (BIOMARIN IGA LIMITED, priority 2007, published 2010).

Test system: Utrophin A promoter linked to a luciferase reporter gene (H2K/mdx/Utro A reporter cell line)
Experiment: Luciferase reporter assay (murine H2K cells)
Format: cell-based
Conditions: Mus musculus; final concentration of 10 μM; incubated for a further 48 hrs
Description: The cell line used for the screen is an immortalized mdx mouse H2K cell line that has been stably transfected with a plasmid containing ≈5 kb fragment of the Utrophin A promoter including the first untranslated […] linked to a luciferase reporter gene.
Under conditions of low temperature and interferon containing media, the cells remain as myoblasts. These are plated into 96 well plates and cultured in the presence of compound for three days. The level of luciferase is then determined by cell lysis and reading of the light output from the expressed luciferase gene utilising a plate luminometer.
The H2K/mdx/Utro A reporter cell line was passaged twice a week until ≦30% confluent. The cells were grown at 33° C. in the presence of 10% CO2
To remove the myoblasts for platting, they were incubated with Trypsin/EDTA until the monolayer started to detach.
• DMEM Gibco 41966 • 20% FCS • 1% Pen/Strep • 1% glutamine • 10 mls Chick embryo extract • Interferon(1276 905 Roche) Add fresh 10 μl/50 mls medium
The H2K/mdx/Utro A reporter cell line cells were plated out into 96 well plates (Falcon 353296, white opaque) at a density of approximately 5000 cells/well in 190 μl normal growth medium. The plates were then incubated at 33° C. in the presence of 10% CO2 for 24 hrs.
Compounds were dosed by adding 10 μl of diluted compound to each well giving a final concentration of 10 μM. The plates were then incubated for a further 48 hrs
Cells were then lysed in situ following the manufacture's protocols (Promega Steady-Glo Luciferase Assay System (E2520). Then counted for 10 seconds using a plate luminometer (Victor1420).

Structure (SMILES)	activity at 10 µM [%]
CCN(CC)c1ccc(-n2nc3ccc(NC(=O)c4ccc(Cl)cc4)cc3n2)cc1 [Example 32, 4-chloro-N-(2-(4-(diethylamino)phenyl)-2H-benzo[d][1,2,3]triazol-5-yl)benzamide]	< 200
CCN(CC)c1ccc(-n2nc3ccc(NC(=O)c4ccc(N(C)C)cc4)cc3n2)cc1 [Example 33, N-(2-(4-(diethylamino)phenyl)-2H-benzo[d][1,2,3]triazol-5-yl)-4-(dimethylamino)benzamide]	< 200
Cc1cc2nn(-c3ccc(N4CCOCC4)cc3)nc2cc1N [Example 34, 6-methyl-2-(4-morpholinophenyl)-2H-benzo[d][1,2,3]triazol-5-amine]	201 to 300
CCC(=O)Nc1ccc2nn(-c3ccc(Cl)cc3)nc2c1 [Example 35, N-(2-(4-chlorophenyl)-2H-benzo[d][1,2,3]triazol-5-yl)propionamide]	> 401
CCCC(=O)Nc1ccc2nn(-c3ccc(Cl)cc3)nc2c1 [Example 36, N-(2-(4-chlorophenyl)-2H-benzo[d][1,2,3]triazol-5-yl)butyramide]	301 to 400
CC(C)C(=O)Nc1ccc2nn(-c3ccc(Cl)cc3)nc2c1 [Example 37, N-(2-(4-chlorophenyl)-2H-benzo[d][1,2,3]triazol-5-yl)isobutyramide]	> 401
Nc1ccc2nn(-c3ccc(Cl)cc3)nc2c1 [Example 38, 2-(4-chlorophenyl)-2H-benzo[d][1,2,3]triazol-5-amine]	< 200
CC(=O)Nc1ccc2nn(-c3ccc(Cl)cc3)nc2c1 [Example 39, N-(2-(4-chlorophenyl)-2H-benzo[d][1,2,3]triazol-5-yl)acetamide]	> 401
Nc1ccc2nn(-c3ccc(N4CCCCC4)cc3)nc2c1 [Example 40, 2-(4-(piperidin-1-yl)phenyl)-2H-benzo[d][1,2,3]triazol-5-amine]	201 to 300
CN(C)c1ccc(-n2nc3ccc(N)cc3n2)cc1 [Example 41, 2-(4-(dimethylamino)phenyl)-2H-benzo[d][1,2,3]triazol-5-amine]	301 to 400
CN1CCN(c2ccc(-n3nc4ccc(N)cc4n3)cc2)CC1 [Example 42, 2-(4-(4-methylpiperazin-1-yl)phenyl)-2H-benzo[d][1,2,3]triazol-5-amine]	< 200
Cc1cc2nn(-c3ccc(Cl)cc3)nc2cc1N [Example 43, 2-(4-chlorophenyl)-6-methyl-2H-benzo[d][1,2,3]triazol-5-amine]	> 401
CS(=O)(=O)c1ccc2cn(-c3ccc(Cl)cc3)nc2c1 [Example 44, 2-(4-chlorophenyl)-6-(methylsulfonyl)-2H-indazole]	201 to 300
O=[N+]([O-])c1ccc2cn(-c3ccc(Cl)cc3)nc2c1 [Example 45, 2-(4-chlorophenyl)-6-nitro-2H-indazole]	< 200
CC(C)C(=O)Nc1ccc2cn(-c3ccc(Cl)cc3)nc2c1 [Example 46, N-(2-(4-chlorophenyl)-2H-indazol-6-yl)isobutyramide]	> 401
CS(=O)(=O)c1ccc2nn(-c3ccc(Cl)cc3)[n+]([O-])c2c1 [Example 47, 2-(4-chlorophenyl)-6-(methylsulfonyl)-2H-benzo[d][1,2,3]triazole 1-oxide]	< 200

Structure (SMILES)	activity at 10 µM [%]
Clc1ccc(-n2cc3ccccc3n2)cc1 [Example 48, 2-(4-chlorophenyl)-2H-indazole]	> 401
CS(=O)(=O)c1ccc2nn(-c3ccc(Cl)cc3)nc2c1 [Example 49, 2-(4-chlorophenyl)-5-(methylsulfonyl)-2H-benzo[d][1,2,3]triazole]	< 200
CS(=O)(=O)c1ccc2nn(-c3ccc(Cl)c(Cl)c3)nc2c1 [Example 50, 2-(3,4-dichlorophenyl)-5-(methylsulfonyl)-2H-benzo[d][1,2,3]triazole]	201 to 300
CCS(=O)(=O)c1ccc2nn(-c3ccc(Cl)c(Cl)c3)nc2c1 [Example 51, 2-(3′,4′-dichlorophenyl)-5-(ethylsulfonyl)-benzotriazole]	301 to 400
CCS(=O)(=O)c1ccc2nn(-c3ccc(Cl)cc3)nc2c1 [Example 52, 2-(4′-chlorophenyl)-5-(ethylsulfonyl)-benzotriazole]	> 401
CC(C)C(=O)Nc1ccc2nn(-c3ccc(Cl)c(Cl)c3)nc2c1 [Example 53, N-(2-(3,4-Dichlorophenyl)-2H-benzo[d][1,2,3]triazol-5-yl)isobutyramide]	> 401
CS(=O)(=O)c1ccc2nn(-c3ccc4ccccc4c3)[n+]([O-])c2c1 [Example 54, 6-(Methylsulfonyl)-2-(naphthalen-2-yl)-2H-benzo[d][1,2,3]triazole 1-oxide]	201 to 300
CS(=O)(=O)c1ccc2nn(-c3ccc4ccccc4c3)nc2c1 [Example 55, 5-(Methylsulfonyl)-2-(naphthalen-2-yl)-2H-benzo[d][1,2,3]triazole]	> 401
CC(C)S(=O)(=O)c1ccc2cn(-c3ccc(Cl)cc3)nc2c1 [Example 56, 2-(4′-Chlorophenyl)-6-(isopropylsulfonyl)-2H-indazole]	> 401
Cc1ccc(-n2nc3ccc(N)cc3n2)cc1C [Example 63, 2-(3,4-dimethylphenyl)-2H-benzo[d][1,2,3]triazol-5-amine]	< 200
CCOc1ccc(-n2nc3cc(C)c(N)cc3n2)cc1 [Example 64, 2-(4-ethoxyphenyl)-6-methyl-2H-benzo[d][1,2,3]triazol-5-amine]	201 to 300
Cc1ccc(-n2nc3cc(C)c(N)cc3n2)cc1 [Example 65, 6-methyl-2-p-tolyl-2H-benzo[d][1,2,3]triazol-5-amine]	201 to 300
COc1ccc(-n2nc3cc(C)c(NC(C)=O)cc3n2)cc1 [Example 66, N-(2-(4-methoxyphenyl)-6-methyl-2H-benzo[d][1,2,3]triazol-5-yl)acetamide]	< 200
CC(=O)Nc1cc2nn(-c3ccccc3)nc2cc1C [Example 67, N-(6-methyl-2-phenyl-2H-benzo[d][1,2,3]triazol-5-yl)acetamide]	201 to 300
CCc1ccc(-n2nc3ccc(N)cc3n2)cc1 [Example 68, 2-(4-ethylphenyl)-2H-benzo[d][1,2,3]triazol-5-amine]	201 to 300
CC(=O)Nc1ccc2nn(-c3ccc(F)cc3)nc2c1 [Example 69, N-(2-(4-fluorophenyl)-2H-benzo[d][1,2,3]triazol-5-yl)acetamide]	201 to 300

Test system: mdx hearts
Experiment: not given
Conditions: cited from earlier work

Structure (SMILES)	myocardial contractile performance
CCCc1nn(C)c2c(=O)[nH]c(-c3cc(S(=O)(=O)N4CCN(C)CC4)ccc3OCC)nc12 [sildenafil]	prevents deterioration

Test system: Primary cultures of skeletal muscle cells
Experiment: Primary cultures of skeletal muscle cells treated with GTE and EGCG (MyHC staining, Western blot)
Format: cell-based, mice
Conditions: Western blot, myotube cultures treated for 7 days
Description: GTE and EGCG also display unexpected pro myogenic properties. Primary cultures of skeletal muscle cells were established from both normal and dystrophic mice and treated with GTE and EGCG for 1-7 days. […] The amount of myotubes reached similar level with both agents compared to control thereafter. Western-blot analysis was performed on myotube cultures treated for 7 days.

Structure (SMILES)	expression of desmin	expression of muscle-specific proteins (dystrophin in control cultures, sarcomeric alpha actinin, MyHC)	myogenin expression
O=C(O[C@@H]1Cc2c(O)cc(O)cc2O[C@@H]1c1cc(O)c(O)c(O)c1)c1cc(O)c(O)c(O)c1 [EGCG, epigallocatechin gallate]	down-regulated	promoted the expression	unchanged

Same assay, conditions: within the first 2-4 days of application; normal and dystrophic mice cells

Structure (SMILES)	rate of formation of myotubes (in situ staining of MyHC)
O=C(O[C@@H]1Cc2c(O)cc(O)cc2O[C@@H]1c1cc(O)c(O)c(O)c1)c1cc(O)c(O)c(O)c1 [EGCG, epigallocatechin gallate]	concentration-dependently stimulated
